Laboratory results as given in PubChem BioAssay (NCI).
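A five-concentration, 48-hour dose response in 96-well plates underlies each endpoint, interpolated linearly between surrounding concentrations. GI50 marks 50% less growth. TGI is the concentration that stops growth completely.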

Columns and labels:
Assay in all cases: NCI-60 cell line screen, 48 h
[1] = system: 786-0 renal
[2] = system: A498 renal
[3] = system: A549 NSCLC
[4] = system: ACHN renal
[5] = system: BT-549 breast
[6] = system: CCRF-CEM leukemia
[7] = system: COLO 205 colon
[8] = system: DU-145 prostate
[9] = system: EKVX NSCLC
[10] = system: HCC-2998 colon
[11] = system: HCT-15 colon
[12] = system: HOP-92 NSCLC
[13] = system: HS 578T breast
[14] = system: HT29 colon
[15] = system: IGROV1 ovarian
[16] = system: KM12 colon
[17] = system: M14 melanoma
[18] = system: MALME-3M melanoma
[19] = system: MCF7 breast
[20] = system: MDA-MB-231 breast
[21] = system: MDA-MB-435
[22] = system: NCI-H226 lung
[23] = system: NCI-H23 lung
[24] = system: NCI-H460 lung
[25] = system: NCI-H522 lung
[26] = system: NCI/ADR-RES ovarian
[27] = system: OVCAR-3 ovarian
[28] = system: OVCAR-4 ovarian
[29] = system: OVCAR-5 ovarian
[30] = system: OVCAR-8 ovarian
[31] = system: PC-3 prostate
[32] = system: RPMI-8226 leukemia
[33] = system: RXF 393 renal
[34] = system: SF-268 CNS
[35] = system: SF-295 CNS
[36] = system: SF-539 CNS
[37] = system: SK-MEL-28 melanoma
[38] = system: SK-MEL-5 melanoma
[39] = system: SK-OV-3 ovarian
[40] = system: SN12C renal
[41] = system: SNB-19 CNS
[42] = system: SNB-75 CNS
[43] = system: SW-620 colon
[44] = system: T-47D breast
[45] = system: TK-10 renal
[46] = system: U251 CNS
[47] = system: UACC-257 melanoma
[48] = system: UACC-62 melanoma
[49] = system: UO-31 renal
[50] = system: CAKI-1 renal
[51] = system: HCT-116 colon
[52] = system: HL-60(TB) leukemia
[53] = system: HOP-62 NSCLC
[54] = system: K-562 leukemia
[55] = system: LOX IMVI melanoma
[56] = system: SK-MEL-2 melanoma

CCc1cccc(CC)c1NC(=O)c1ccn2c1CCc1cnc(Nc3ccc(N4CCN(C)CC4)cc3OC)nc1-2
GI50 [1]: 1.66 µM | TGI [1]: 3.84 µM | GI50 [2]: 10.9 µM | TGI [2]: 23.5 µM | GI50 [3]: 2.17 µM | TGI [3]: 42 µM | GI50 [4]: 2.31 µM | TGI [4]: 12.4 µM | GI50 [5]: 2.23 µM | TGI [5]: 6.63 µM | GI50 [6]: 0.213 µM | TGI [6]: 6.6 µM | GI50 [7]: 0.0231 µM | TGI [7]: 2.36 µM | GI50 [8]: 2.6 µM | TGI [8]: 15.8 µM | GI50 [9]: 3.02 µM | TGI [9]: 19.6 µM | GI50 [10]: 2.28 µM | TGI [10]: 8.63 µM | GI50 [11]: 0.0413 µM | TGI [11]: 2.55 µM | GI50 [12]: 1.95 µM | TGI [12]: 9.66 µM | GI50 [13]: 2.24 µM | TGI [13]: 11 µM | GI50 [14]: 1.26 µM | TGI [14]: 9.36 µM | GI50 [15]: 2.52 µM | TGI [15]: 19.4 µM | GI50 [16]: 2.63 µM | TGI [16]: 14.8 µM | GI50 [17]: 1.59 µM | TGI [17]: 3.62 µM | GI50 [18]: 1.87 µM | TGI [18]: 3.8 µM | GI50 [19]: 1.12 µM | TGI [19]: 7.55 µM | GI50 [20]: 2.11 µM | TGI [20]: 8.29 µM | GI50 [21]: 2.51 µM | TGI [21]: 11.7 µM | GI50 [22]: 14.7 µM | TGI [22]: 45.2 µM | GI50 [23]: 4.48 µM | TGI [23]: 27 µM | GI50 [24]: 0.0814 µM | TGI [24]: 10.7 µM | GI50 [25]: 1.81 µM | TGI [25]: 4.32 µM | GI50 [26]: 1.33 µM | TGI [26]: > 100 µM | GI50 [27]: 1.55 µM | TGI [27]: 4.22 µM | GI50 [28]: 3.77 µM | TGI [28]: 18.1 µM | GI50 [29]: 3.51 µM | TGI [29]: 22 µM | GI50 [30]: 2.19 µM | TGI [30]: 32.8 µM | GI50 [31]: 2.5 µM | TGI [31]: 16.2 µM | GI50 [32]: 1.92 µM | TGI [32]: 6.58 µM | GI50 [33]: 1.58 µM | TGI [33]: 3.08 µM | GI50 [34]: 3.14 µM | TGI [34]: 17.8 µM | GI50 [35]: 1.62 µM | TGI [35]: 3.73 µM | GI50 [36]: 1.1 µM | TGI [36]: 3.19 µM | GI50 [37]: 1.76 µM | TGI [37]: 3.55 µM | GI50 [38]: 1.61 µM | TGI [38]: 3.02 µM | GI50 [39]: 11.3 µM | TGI [39]: 23.4 µM | GI50 [40]: 2.13 µM | TGI [40]: 13.9 µM | GI50 [41]: 3.57 µM | TGI [41]: 15.2 µM | GI50 [42]: 1.87 µM | TGI [42]: 7.47 µM | GI50 [43]: 1.11 µM | TGI [43]: 5.94 µM | GI50 [44]: 1.55 µM | TGI [44]: 4.18 µM | GI50 [45]: 2.93 µM | TGI [45]: 16.2 µM | GI50 [46]: 1.84 µM | TGI [46]: 5.99 µM | GI50 [47]: 2.05 µM | TGI [47]: 4.8 µM | GI50 [48]: 2.08 µM | TGI [48]: 4.52 µM | GI50 [49]: 1.55 µM | TGI [49]: 7.74 µM

O=C(OC(CNc1c(C(=O)c2ccccc2)c(=O)n(Cc2ccccc2)c(=O)n1Cc1ccccc1)CN1CCCCC1)c1ccccc1 (stereo not given)
GI50 [1]: 14.9 µM | TGI [1]: 29.4 µM | GI50 [2]: 32.3 µM | TGI [2]: 76.5 µM | GI50 [3]: 50.3 µM | TGI [3]: > 100 µM | GI50 [4]: 30.1 µM | TGI [4]: > 100 µM | GI50 [5]: 25.5 µM | TGI [5]: 82.9 µM | GI50 [50]: 18.3 µM | TGI [50]: 35.5 µM | GI50 [6]: 16 µM | TGI [6]: 40 µM | GI50 [7]: 19.6 µM | TGI [7]: 47.8 µM | GI50 [8]: 29.3 µM | TGI [8]: 80.9 µM | GI50 [9]: 38.3 µM | TGI [9]: > 100 µM | GI50 [10]: 12.1 µM | TGI [10]: 24.4 µM | GI50 [51]: 14.9 µM | TGI [51]: 28.1 µM | GI50 [11]: 13.5 µM | TGI [11]: 26.3 µM | GI50 [52]: 14.8 µM | TGI [52]: 33.8 µM | GI50 [53]: 18 µM | TGI [53]: 33.6 µM | GI50 [13]: 42 µM | TGI [13]: > 100 µM | GI50 [15]: 17.4 µM | TGI [15]: 36.9 µM | GI50 [54]: 14.9 µM | TGI [54]: 31.3 µM | GI50 [16]: 19.9 µM | TGI [16]: 40.2 µM | GI50 [55]: 12.8 µM | TGI [55]: 25.4 µM | GI50 [17]: 16.3 µM | TGI [17]: 31.1 µM | GI50 [18]: 18.5 µM | TGI [18]: 40.7 µM | GI50 [19]: 20.7 µM | TGI [19]: 39.4 µM | GI50 [20]: 17.6 µM | TGI [20]: 32.4 µM | GI50 [21]: 18.5 µM | TGI [21]: 37.7 µM | GI50 [22]: 67.2 µM | TGI [22]: > 100 µM | GI50 [23]: 18.5 µM | TGI [23]: 39.2 µM | GI50 [24]: 21.1 µM | TGI [24]: 46.7 µM | GI50 [25]: 21.1 µM | TGI [25]: 40.7 µM | GI50 [26]: 17.6 µM | TGI [26]: 34.5 µM | GI50 [27]: 18 µM | TGI [27]: 35.2 µM | GI50 [29]: 24.7 µM | TGI [29]: 63.4 µM | GI50 [30]: 18.3 µM | TGI [30]: 39.7 µM | GI50 [31]: 13.1 µM | TGI [31]: 26.4 µM | GI50 [32]: 13.8 µM | TGI [32]: 31.8 µM | GI50 [33]: 14.7 µM | TGI [33]: 29.5 µM | GI50 [34]: 24.1 µM | TGI [34]: 53.2 µM | GI50 [35]: 22.1 µM | TGI [35]: 42.5 µM | GI50 [36]: 21.7 µM | TGI [36]: 42.2 µM | GI50 [56]: 19.1 µM | TGI [56]: 34.8 µM | GI50 [38]: 18.2 µM | TGI [38]: 42.5 µM | GI50 [39]: 37.6 µM | TGI [39]: > 100 µM | GI50 [40]: 19.3 µM | TGI [40]: 36.9 µM | GI50 [41]: 30.4 µM | TGI [41]: 83.5 µM | GI50 [43]: 35.7 µM | TGI [43]: > 100 µM | GI50 [44]: > 100 µM | TGI [44]: > 100 µM | GI50 [45]: 23.6 µM | TGI [45]: 71.6 µM | GI50 [46]: 15.2 µM | TGI [46]: 29 µM | GI50 [47]: 15.1 µM | TGI [47]: 32.5 µM | GI50 [48]: 20.7 µM | TGI [48]: 42.4 µM | GI50 [49]: 16.7 µM | TGI [49]: 36 µM
